From patent publication US9586999B2, “Methods and compositions related to improving properties of pharmacological agents targeting nervous system” (University of Utah Research Foundation, priority 2006, dated 2017)
“Also recorded” adds a separate entry of the source.

Key:
[1] = system: mechanical allodynia; experiment: Sciatic nerve ligation model of chronic pain, mechanical allodynia (Von Frey); format: in vivo, rat; conditions: 2 mg/kg i.p.
Protocol: Just prior to surgery, rats are treated subcutaneously with 0.1 to 0.5 mg/kg of the long acting opiate buprenorphine. Rats are then anesthetized with pentobarbital and the depth of anesthesia monitored by their response to a tail pinch and observation of the depth of respiration. Sterile technique was used throughout the surgery.
The upper thigh of each rat was shaved and wiped off with ethanol and betadine. A small incision was made in the skin and through the underlying muscle of the upper thigh until the sciatic nerve was exposed. The nerve was then separated from the surrounding connective tissue and slightly elevated by a pair of fine, curved forceps. Approximately ⅓ to ½ of the nerve was then tied off by passing a needle and nylon suture (7.0) through the nerve. […] Rats were closely monitored daily for the development of infection or untoward effects of the surgery.
After an appropriate time for recovery (e.g., 7-14 days) the animals were tested for the development of mechanical allodynia (pain response to a non-noxious stimulus). […] After a 30-60 minute acclimation period, a baseline mechanical sensitivity was determined. […] This procedure was repeated until a 50% threshold for withdrawal could be determined.

[2] = system: corneal kindling; experiment: Mouse corneal kindling acquisition; format: in vivo
Protocol: CF#1 mice were randomized to receive either vehicle (0.9% saline) or NAX-5055. Mice in the NAX-5055 group received two doses of NAX-5055 twelve (12 h) and 1 h prior to their first kindling stimulation. One hour (1 h) prior to each subsequent stimulation, mice in the NAX-5055 treated group received another dose of NAX-5055 (4 mg/kg, i.p.). Mice were stimulated twice daily for 16 days. Results are expressed as the mean seizure score per stimulation. As noted above, the results for the NAX-5055 treated mice segregated into two populations; i.e., sensitive (green line) and insensitive (blue line).
Mice treated with NAX-5055 (see legend to Figure X for experimental details) segregated into two treatment groups; i.e., NAX-5055 sensitive and NAX-5055 insensitive. Results are expressed as the number of stimulations required to reach a particular seizure score+/−S.E.M.; i.e., 1 to 5. […] One Way ANOVA, p<0.0209; post hoc analysis: saline vs. NAX-5055 insensitive, p>0.05; NAX-5055 sensitive vs. NAX-5055 insensitive, p<0.05.
Daily electrical stimulation via the cornea results in a stable kindled state within 15-20 days. This is an ideal model to initially assess the ability of selected galanin analogs to prevent kindling acquisition because the amount of peptide required is much lower than what is required for a rat kindling study. Those compounds found to be effective in preventing the acquisition of kindling are subsequently evaluated in a more traditional rat kindling model; i.e., amygdala kindled rat. For the proposed studies two groups of mice (n=8 mice per group) are randomized to receive either vehicle or peptide prior to each kindling stimulation. […] At the time to peak effect (obtained from the 6 Hz study), they are stimulated via corneal electrodes with a subconvulsive current (50 Hz, 3 mA, for 3.0 sec) and observed for the presence or absence of seizure activity. Seizure activity is scored according to the criteria established by Racine et al., (1972). Animals receive two stimulations per day until they display their first Stage 5 behavioral seizure and then once daily until they display stable secondarily generalized seizures (5 consecutive Stage 4-5 seizures). Peptide treatment continues in the experimental group until the point that the control mice become fully kindled. At this point, mice in both groups are permitted a one-week stimulus and treatment-free week. On the 8th day, mice in both groups are stimulated in the absence of peptide or vehicle and their seizure score recorded.
The ability of the blood-brain-barrier penetrant galanin-based neuropeptide NAX-5055 to prevent the development of corneal kindling was studied in CF#1 mice. […] Following stimulation seizure activity was scored on a scale of 0-5 as established by Racine (1972).

[3] = 4 mg/kg i.p. twice daily, NAX-5055 sensitive group

Substance: Sar-Trp-Thr-Leu-Asn-Ser-Ala-Gly-Tyr-Leu-Leu-Gly-Pro-Lys-Lys-(Lys-palm)-Lys-NH2 [NAX 5055]
- threshold for mechanical allodynia ([1]; 30 min to 6 h): time-dependent increase in the threshold for mechanical allodynia
- potency relative to morphine (2 mg/kg) and gabapentin (40 mg/kg) ([1]; listed as GAL-BBB2): equi-potent to morphine; also recorded: several fold more potent that gabapentin
- kindling acquisition ([2]; 4 mg/kg i.p.): can delay kindling acquisition
- Stage 5 seizures [2, 3]: none of the mice in the NAX-5055 sensitive group reached Stage 5 seizures
- more stimulations to reach Stage 2 and Stage 3 seizures [2, 3]: 35-40%
- stimulations required to reach a Stage 1 seizure [2, 3]: two times more stimulations
